Tests used:
[1] = Phase 2/3 trial BHV3500-201 (Study 201), safety, adverse events and liver function tests; assay type: in vivo, human
Description: The majority (>80%) of AEs were mild in intensity.

[2] = Phase 1 multiple ascending dose (MAD) study, intranasal, pharmacokinetics; parameters: species or system human; conditions: in vivo
Method: A Phase 1, single-center, randomized, double-blind, placebo-controlled, sequential multiple ascending dose (MAD) study with 2 alternate dosing arms was conducted. […] The MAD portion of the study consists of 4 cohorts, with a maximum dose of 20 mg administered once daily for up to 14 days in 3 cohorts, and 20 mg administered twice daily for up to 8 days in the fourth cohort.
In addition to the 4 MAD cohorts, there were 2 alternate dosing cohorts, each consisting of 1 day dosing. The first alternate dosing cohort assessed the effect of 2 sequential administrations of 20 mg (20 mg spray [100 μL of 200 mg/mL] in alternate nostrils); with a 30 minute interval between administrations. A 2nd alternate dosing cohort assessed the effect of 2 sequential administrations of 20 mg (20 mg spray [100 μL of 200 mg/mL] in alternate nostrils); with a nose blow and 5 minute interval between administrations.
The PK data were collected from subjects in Cohorts 1 to 4.

clinical = conditions: human, in vivo; for AUC(0-inf): AUC[0-inf] (ng · h/mL) GM; for AUC(0-t): AUC[0-t] (ng · h/mL) GM; for Cmax: Cmax (ng/mL) GM
Description: BHV3500-101 is a completed Phase 1, single-center, placebo-controlled, randomized, double-blind, sequential SAD study. This study consisted of up to 11 cohorts.
In total, 41 subjects were included in the PK analyses.

pKa of drug substance = assay type: physicochemical; conditions: mono-hydrochloride salt form
[3] = pH-solubility profile of drug substance; assay type: physicochemical; conditions: pH = 8.2; mono-hydrochloride salt form
[4] = human, inhaled or intranasal, 5 mg
[5] = human, inhaled or intranasal, 10 mg
[6] = human, inhaled or intranasal, 20 mg

SMILES: Cc1cc(C[C@@H](NC(=O)N2CCC(c3cc4ccccc4[nH]c3=O)CC2)C(=O)N2CCN(C3CCN(C)CC3)CC2)cc2cn[nH]c12 [Zavegepant, (R)—N-(3-(7-methyl-1H-indazol-5-yl)-1-(4-(1-methylpiperidin-4-yl)piperazin-1-yl)-1-oxopropan-2-yl)-4-(2-oxo-1,2-dihydroquinolin-3-yl)piperidine-1-carboxamide]
- ALT or AST > 3 × ULN (subjects) ([1]; 5 mg (N = 388)): 0
- Bilirubin > 2 × ULN (subjects) ([1]; 5 mg (N = 388)): 0
- ALT or AST > 3 × ULN (subjects) ([1]; 10 mg (N = 394)): 0
- Bilirubin > 2 × ULN (subjects) ([1]; 10 mg (N = 394)): 0
- ALT or AST > 3 × ULN (subjects) ([1]; 20 mg (N = 403)): 0
- Bilirubin > 2 × ULN (subjects) ([1]; 20 mg (N = 403)): 0
- ALT or AST > 3 × ULN (subjects) ([1]; All zavegepant (N = 1185)): 0
- Bilirubin > 2 × ULN (subjects) ([1]; All zavegepant (N = 1185)): 0
- hepatotoxicity signal (AST or ALT >3xULN, total bilirubin >2xULN) ([1]; any treatment arm): no signal of hepatoxicity
- tolerability and safety ([1]; intranasal, single dose trial): well tolerated and safe
- AEs mild in intensity ([1]; single dose trial): > 80%
- half-life ([2]; human, 20 mg): 3.69 to 4.93 h
- Tmax ([2]; human, Tmax): ~30 min
- AUC [2, 4]: 20.7 ng·h/mL
- AUC0-24 (ng*h/mL) geometric mean [2, 4]: 24.95 ng·h/mL
- AUC0-τ ss (ng*h/mL) geometric mean [2, 4]: 20.66 ng·h/mL
- AUC(0-inf) [2, 4]: 22.4 ng·h/mL
- Cl/F (L/h) Mean [2, 4]: 293.27 L/h
- Tmax (h) Mean [2, 4]: 0.52 h
- Vd/F [2, 4]: 1570 L
- half-life [2, 4]: 3.69 h
- AUC(0-t) ([2]; human, inhaled or intranasal, 5 mg, AUC0-24 (ng*h/mL) geometric mean): 24.9 ng·h/mL
- AUC(0-t) ([2]; human, inhaled or intranasal, 5 mg, AUC0-t (ng*h/mL) geometric mean): 19 ng·h/mL
- Tmax ([2]; human, inhaled or intranasal, 5 mg, Tmax (h) Mean): 31.2 min
- AUC [2, 5]: 32.9 ng·h/mL
- AUC0-24 (ng*h/mL) geometric mean [2, 5]: 29.61 ng·h/mL
- AUC0-τ ss (ng*h/mL) geometric mean [2, 5]: 32.85 ng·h/mL
- AUC(0-inf) [2, 5]: 33.9 ng·h/mL
- Cl/F (L/h) Mean [2, 5]: 341.09 L/h
- Tmax (h) Mean [2, 5]: 0.57 h
- Vd/F [2, 5]: 1660 L
- half-life [2, 5]: 3.84 h
- AUC(0-t) ([2]; human, inhaled or intranasal, 10 mg, AUC0-24 (ng*h/mL) geometric mean): 29.6 ng·h/mL
- AUC(0-t) ([2]; human, inhaled or intranasal, 10 mg, AUC0-t (ng*h/mL) geometric mean): 30.9 ng·h/mL
- Tmax ([2]; human, inhaled or intranasal, 10 mg, Tmax (h) Mean): 26.4 min
- AUC [2, 6]: 91 ng·h/mL
- AUC0-24 (ng*h/mL) geometric mean [2, 6]: 80.09 ng·h/mL
- AUC0-τ ss (ng*h/mL) geometric mean [2, 6]: 90.98 ng·h/mL
- AUC(0-inf) [2, 6]: 92.4 ng·h/mL
- Cl/F (L/h) Mean [2, 6]: 254.40 L/h
- Tmax (h) Mean [2, 6]: 0.56 h
- Vd/F [2, 6]: 1740 L
- AUC(0-t) ([2]; human, inhaled or intranasal, 20 mg, AUC0-24 (ng*h/mL) geometric mean): 80.1 ng·h/mL
- AUC(0-t) ([2]; human, inhaled or intranasal, 20 mg, AUC0-t (ng*h/mL) geometric mean): 87.9 ng·h/mL
- Cmax ([2]; human, inhaled or intranasal, 20 mg, Cmax (ng/mL) geometric mean): 34.7 ng/mL
- Tmax ([2]; human, inhaled or intranasal, 20 mg, Tmax (h) Mean): 34.2 min
- half-life ([2]; human, inhaled or intranasal, 20 mg once daily intranasal (Cohort 3), Day 14, read-out: T1/2 el (h) Mean (converted)): 4.93 h
- concentration at 0.5 h ([2]; human, 5 mg, Day 14, nominal time 0.500 h, read-out: Plasma Concentrations (ng/mL) Mean): 8.08 ng/mL
- urine concentrations [2]: below the limit of quantitation
- median Tmax, range across doses (clinical): 32.4 to 46.2 min
- median t1/2, range across doses (clinical): 150 to 264 min
- AUC(0-inf) (clinical; inhaled or intranasal, 1 mg): 3.5 ng·h/mL
- AUC(0-t) (clinical; inhaled or intranasal, 1 mg): 2.34 ng·h/mL
- Cmax (clinical; inhaled or intranasal, 1 mg): 1.34 ng/mL
- Tmax (clinical; inhaled or intranasal, 1 mg, Tmax (h) Median): 57.6 min
- half-life (clinical; inhaled or intranasal, 1 mg, t1/2 el (h) Median): 98.4 min
- AUC(0-inf) (clinical; inhaled or intranasal, 3 mg): 9.75 ng·h/mL
- AUC(0-t) (clinical; inhaled or intranasal, 3 mg): 7.85 ng·h/mL
- Cmax (clinical; inhaled or intranasal, 3 mg): 3.68 ng/mL
- Tmax (clinical; inhaled or intranasal, 3 mg, Tmax (h) Median): 46.8 min
- half-life (clinical; inhaled or intranasal, 3 mg, t1/2 el (h) Median): 134 min
- AUC(0-inf) (clinical; inhaled or intranasal, 5 mg): 20.9 ng·h/mL
- AUC(0-t) (clinical; inhaled or intranasal, 5 mg): 18.8 ng·h/mL
- Cmax (clinical; inhaled or intranasal, 5 mg): 7.8 ng/mL
- Tmax (clinical; inhaled or intranasal, 5 mg, Tmax (h) Median): 36 min
- half-life (clinical; inhaled or intranasal, 5 mg, t1/2 el (h) Median): 142 min
- Tmax (h) Median (clinical; inhaled or intranasal, 10 mg): 0.54 h
- AUC(0-inf) (clinical; inhaled or intranasal, 10 mg): 28.5 ng·h/mL
- AUC(0-t) (clinical; inhaled or intranasal, 10 mg): 26.2 ng·h/mL
- Cmax (clinical; inhaled or intranasal, 10 mg): 13.4 ng/mL
- Tmax (clinical; inhaled or intranasal, 10 mg, Tmax (h) Median): 32.4 min
- half-life (clinical; inhaled or intranasal, 10 mg, t1/2 el (h) Median): 175 min
- Tmax (clinical; inhaled or intranasal, Tmax (h) Median): 46.2 min
- half-life (clinical; inhaled or intranasal, t1/2 el (h) Median): 143 min
- Tmax (clinical; median Tmax, range across doses): 32.4 to 57.6 min
- half-life (clinical; median t1/2, range across doses): 96 to 282 min
- pKa (pKa of drug substance): 4.8
- pH-solubility profile [3]: 105 mg/mL at pH = 8.2
